{"source": "paper PMC6166781", "about": "(Nature structural & molecular biology, 2017)", "key": {"α1β3L297Aγ2 GABAAR": {"target": "α1β3L297Aγ2 GABAAR (Homo sapiens, UniProt P14867+P28472, L322A)", "type": "cell-based", "conditions": "for loss of sensitivity to potentiation versus wild type: L297A vs WT"}, "α1β3γ2 GABAAR": {"target": "α1β3γ2 GABAAR (Homo sapiens, UniProt P14867+P28472)", "type": "cell-based"}, "α1β3F301Aγ2 GABAAR": {"target": "α1β3F301Aγ2 GABAAR (Homo sapiens, UniProt P14867+P28472, F326A)", "type": "cell-based"}, "GABAAR heteromers": {"system": "GABAAR heteromers", "conditions": "cited from earlier work"}, "α5TMD [1]": {"target": "T1, α5TMD (Homo sapiens, UniProt P28472+P31644, DEL351-357/DEL363-425/E358R/G348Q/K256N/R347S/W349P)", "T1 sequence (P28472+P31644 with tags, fused parts or gaps P31644:K256N/P31644:R347S/P31644:G348Q/P31644:W349P/P31644:DEL351-357/P31644:E358R/P31644:DEL363-425)": "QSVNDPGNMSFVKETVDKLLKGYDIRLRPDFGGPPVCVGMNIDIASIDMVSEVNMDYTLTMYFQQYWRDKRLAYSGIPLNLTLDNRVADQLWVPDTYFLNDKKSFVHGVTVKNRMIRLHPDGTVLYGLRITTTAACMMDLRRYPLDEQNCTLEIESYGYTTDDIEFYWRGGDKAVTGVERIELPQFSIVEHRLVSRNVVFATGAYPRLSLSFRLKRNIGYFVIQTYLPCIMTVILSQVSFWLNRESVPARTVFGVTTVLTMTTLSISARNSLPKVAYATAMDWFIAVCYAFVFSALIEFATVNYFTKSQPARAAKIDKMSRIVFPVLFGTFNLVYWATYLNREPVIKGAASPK", "experiment": "Whole-cell patch-clamp of α5TMD in transfected HEK-293T cells", "type": "cell-based"}, "α5TMD T287K T309A": {"target": "T2, α5TMD T287K T309A (Homo sapiens, UniProt P28472, A271S/A273P/A277V/D270E/DELINS289-473LSISARNSLPKVAYAKAMDWFIAVCYAFVFSALIEFAAVNYFTKSQPARAAKIDKMSRIVFPVLFGTFNLVYWATYLNREPVIKGAASPK/I247V/I257T/I267L/I280V/L248I/L256M/L278F/M252L/S254C/S272V/T258V/V276T/W262Q/Y269R)", "T2 sequence (P28472 with tags, fused parts or gaps I247V/L248I/M252L/S254C/L256M/I257T/T258V/W262Q/I267L/Y269R/D270E/A271S/S272V/A273P/V276T/A277V/L278F/I280V)": "T1 sequence (P28472+P31644 with tags, fused parts or gaps P31644:K256N/P31644:R347S/P31644:G348Q/P31644:W349P/P31644:DEL351-357/P31644:E358R/P31644:DEL363-425) with T279K, T301A", "type": "cell-based"}, "α5TMD [2]": {"target": "T1, α5TMD", "experiment": "Thermostability binding experiment"}, "[3]": {"target": "T3, α5TMD T287K (chimeric GABAAR, β3 subunit ECD fused to α5 subunit TMD) (Homo sapiens, UniProt P28472, A271S/A273P/A277V/D270E/DELINS289-473[…]/I247V/I257T/I267L/I280V/L248I/L256M/L278F/M252L/S254C/S272V/T258V/V276T/W262Q/Y269R)", "T3 sequence (P28472 with tags, fused parts or gaps I247V/L248I/M252L/S254C/L256M/I257T/T258V/W262Q/I267L/Y269R/D270E/A271S/S272V/A273P/V276T/A277V/L278F/I280V)": "T1 sequence (P28472+P31644 with tags, fused parts or gaps P31644:K256N/P31644:R347S/P31644:G348Q/P31644:W349P/P31644:DEL351-357/P31644:E358R/P31644:DEL363-425) with T279K", "type": "cell-based", "conditions": "T287K background; n = 6"}, "[4]": {"target": "T4, α5TMD T287K (chimeric GABAAR, β3 subunit ECD fused to α5 subunit TMD) (Homo sapiens, UniProt P28472, A271S/A273P/A277V/D270E/DELINS289-473LSISARNSLPKVAYAKAMDWFIAVCYAFVFSALIEFATVNYFTKSQPARAAKIDKMSRIVFPVLFGTFNLVYWATYLNREPVIKGAASPK/I247V/I257T/I267L/I280V/L248I/L256M/L278F/M252L/S254C/S272V/T258V/V276T/W262Q/Y269R)", "T4 sequence (P28472 with tags, fused parts or gaps I247V/L248I/M252L/S254C/L256M/I257T/T258V/W262Q/I267L/Y269R/D270E/A271S/S272V/A273P/V276T/A277V/L278F/I280V)": "T1 sequence (P28472+P31644 with tags, fused parts or gaps P31644:K256N/P31644:R347S/P31644:G348Q/P31644:W349P/P31644:DEL351-357/P31644:E358R/P31644:DEL363-425) with T279K", "type": "cell-based", "conditions": "EC50 of potentiation of histamine EC10-15 responses, Fig. 1e; n = 6"}, "α5TMD T287K W249L": {"target": "T5, α5TMD T287K W249L (Homo sapiens, UniProt P28472, A271S/A273P/A277V/D270E/DELINS289-473LSISARNSLPKVAYAKAMDWFIAVCYAFVFSALIEFATVNYFTKSQPARAAKIDKMSRIVFPVLFGTFNLVYWATYLNREPVIKGAASPK/I247V/I257T/I267L/I280V/L248I/L256M/L278F/M252L/S254C/S272V/T258V/V276T/W262Q/W266L/Y269R)", "T5 sequence (P28472 with tags, fused parts or gaps I247V/L248I/M252L/S254C/L256M/I257T/T258V/W262Q/W266L/I267L/Y269R/D270E/A271S/S272V/A273P/V276T/A277V/L278F/I280V)": "T1 sequence (P28472+P31644 with tags, fused parts or gaps P31644:K256N/P31644:R347S/P31644:G348Q/P31644:W349P/P31644:DEL351-357/P31644:E358R/P31644:DEL363-425) with W241L, T279K", "type": "cell-based"}, "α5TMD T287K Q245L": {"target": "T6, α5TMD T287K Q245L (Homo sapiens, UniProt P28472, A271S/A273P/A277V/D270E/DELINS289-473[…]/I247V/I257T/I267L/I280V/L248I/L256M/L278F/M252L/S254C/S272V/T258V/V276T/W262L/Y269R)", "T6 sequence (P28472 with tags, fused parts or gaps I247V/L248I/M252L/S254C/L256M/I257T/T258V/W262L/I267L/Y269R/D270E/A271S/S272V/A273P/V276T/A277V/L278F/I280V)": "T1 sequence (P28472+P31644 with tags, fused parts or gaps P31644:K256N/P31644:R347S/P31644:G348Q/P31644:W349P/P31644:DEL351-357/P31644:E358R/P31644:DEL363-425) with Q237L, T279K", "type": "cell-based", "conditions": "leucine substitution of M1 Gln245"}, "α5TMD Q245L": {"target": "T7, α5TMD Q245L (Homo sapiens, UniProt P28472, A271S/A273P/A277V/D270E/DELINS289-473LSISARNSLPKVAYATAMDWFIAVCYAFVFSALIEFATVNYFTKSQPARAAKIDKMSRIVFPVLFGTFNLVYWATYLNREPVIKGAASPK/I247V/I257T/I267L/I280V/L248I/L256M/L278F/M252L/S254C/S272V/T258V/V276T/W262L/Y269R)", "T7 sequence (P28472 with tags, fused parts or gaps I247V/L248I/M252L/S254C/L256M/I257T/T258V/W262L/I267L/Y269R/D270E/A271S/S272V/A273P/V276T/A277V/L278F/I280V)": "T1 sequence (P28472+P31644 with tags, fused parts or gaps P31644:K256N/P31644:R347S/P31644:G348Q/P31644:W349P/P31644:DEL351-357/P31644:E358R/P31644:DEL363-425) with Q237L", "experiment": "Thermostability binding experiment"}, "α5TMD Q245W": {"target": "T8, α5TMD Q245W (Homo sapiens, UniProt P28472, A271S/A273P/A277V/D270E/DELINS289-473LSISARNSLPKVAYATAMDWFIAVCYAFVFSALIEFATVNYFTKSQPARAAKIDKMSRIVFPVLFGTFNLVYWATYLNREPVIKGAASPK/I247V/I257T/I267L/I280V/L248I/L256M/L278F/M252L/S254C/S272V/T258V/V276T/Y269R)", "T8 sequence (P28472 with tags, fused parts or gaps I247V/L248I/M252L/S254C/L256M/I257T/T258V/I267L/Y269R/D270E/A271S/S272V/A273P/V276T/A277V/L278F/I280V)": "T1 sequence (P28472+P31644 with tags, fused parts or gaps P31644:K256N/P31644:R347S/P31644:G348Q/P31644:W349P/P31644:DEL351-357/P31644:E358R/P31644:DEL363-425) with Q237W", "experiment": "Thermostability binding experiment"}}}
{"molecule": "CC(=O)[C@H]1CC[C@H]2[C@@H]3CC[C@H]4C[C@H](O)CC[C@]4(C)[C@H]3CC[C@]12C", "note": "[allopregnanolone]", "values": [{"measurement": "EC50", "setting": "α1β3L297Aγ2 GABAAR", "result": "1600 ± 200", "unit": "nM"}, {"measurement": "loss of sensitivity to potentiation versus wild type", "setting": "α1β3L297Aγ2 GABAAR", "result": 5, "unit": "fold"}, {"measurement": "EC50", "setting": "α1β3γ2 GABAAR", "result": "280 ± 40", "unit": "nM"}, {"measurement": "EC50", "setting": "α1β3F301Aγ2 GABAAR", "result": "260 ± 60", "unit": "nM"}]}
{"molecule": "CC(=O)[C@H]1CC[C@H]2[C@@H]3CC[C@@H]4C[C@@H](O)CC[C@]4(C)[C@H]3CC[C@]12C", "note": "[epipregnanolone]", "values": [{"measurement": "potentiation of GABAAR heteromers (qualitative)", "setting": "GABAAR heteromers", "result": "weak potentiator"}]}
{"molecule": "NCCc1c[nH]cn1", "note": "[histamine]", "values": [{"measurement": "agonist effect on receptor current", "setting": "α5TMD [1]; Fig. 1a", "result": "activated and then desensitised"}]}
{"molecule": "CC(=O)[C@H]1CC[C@H]2[C@@H]3CC[C@@H]4C[C@H](O)CC[C@]4(C)[C@H]3CC[C@]12C", "note": "[pregnanolone]", "values": [{"measurement": "EC50", "setting": "α5TMD T287K T309A", "result": "2200 ± 300", "unit": "nM"}, {"measurement": "EC50", "setting": "α5TMD [2]", "result": "5500 ± 300", "unit": "nM"}, {"measurement": "potentiation of submaximal (EC10-15) histamine doses", "setting": "[3]", "result": "325 ± 104", "unit": "%"}, {"measurement": "EC50", "setting": "[4]", "result": "1300 ± 100", "unit": "nM"}, {"measurement": "EC50", "setting": "α5TMD T287K W249L", "result": "> 10000", "unit": "nM"}, {"measurement": "potentiation of histamine EC10-15 responses", "setting": "α5TMD T287K Q245L", "result": "ablated"}, {"measurement": "EC50", "setting": "α1β3L297Aγ2 GABAAR", "result": "2500 ± 200", "unit": "nM"}, {"measurement": "loss of sensitivity to potentiation versus wild type", "setting": "α1β3L297Aγ2 GABAAR", "result": 10, "unit": "fold"}, {"measurement": "EC50", "setting": "α5TMD Q245L", "result": "> 30000", "unit": "nM"}, {"measurement": "EC50", "setting": "α1β3γ2 GABAAR", "result": "240 ± 20", "unit": "nM"}, {"measurement": "EC50", "setting": "α1β3F301Aγ2 GABAAR", "result": "280 ± 40", "unit": "nM"}, {"measurement": "EC50", "setting": "α5TMD Q245W", "result": "> 30000", "unit": "nM"}]}
{"molecule": "picrotoxin", "values": [{"measurement": "effect on spontaneous inward leak current", "setting": "α5TMD [1]; Fig. 1b", "result": "blocks a spontaneous inward leak current"}]}
